Results from PubChem BioAssay (NCI).
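Exposure lasted 48 hours, with cells grown in 96-well plates and compounds tested at five concentrations. GI50 = concentration required for 50% inhibition of growth. TGI marks complete inhibition of growth.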

Columns and labels:
Assay in all cases: NCI anticancer screen, dose series, 48 h
[1] = tested on: MALME-3M melanoma
[2] = tested on: NCI/ADR-RES ovarian
[3] = tested on: M14 melanoma
[4] = tested on: OVCAR-4 ovarian
[5] = tested on: SN12C renal
[6] = tested on: U251 CNS
[7] = tested on: KM20L2 colon
[8] = tested on: HCC-2998 colon
[9] = tested on: UACC-62 melanoma
[10] = tested on: DLD-1 colon
[11] = tested on: HS 578T breast
[12] = tested on: SW-620 colon
[13] = tested on: CCRF-CEM leukemia
[14] = tested on: NCI-H23 lung
[15] = tested on: EKVX NSCLC
[16] = tested on: HOP-92 NSCLC
[17] = tested on: RXF 393 renal
[18] = tested on: SF-539 CNS
[19] = tested on: HT29 colon
[20] = tested on: MDA-MB-231 breast
[21] = tested on: PC-3 prostate
[22] = tested on: MCF7 breast
[23] = tested on: K-562 leukemia
[24] = tested on: SNB-19 CNS
[25] = tested on: HOP-62 NSCLC
[26] = tested on: DMS 114 small cell lung
[27] = tested on: DMS 273 small cell lung
[28] = tested on: 786-0 renal
[29] = tested on: A498 renal
[30] = tested on: LXFL 529 NSCLC
[31] = tested on: KM12 colon
[32] = tested on: SF-268 CNS
[33] = tested on: SNB-75 CNS
[34] = tested on: LOX IMVI melanoma
[35] = tested on: ACHN renal
[36] = tested on: TK-10 renal
[37] = tested on: SR leukemia
[38] = tested on: HCT-15 colon
[39] = tested on: CAKI-1 renal
[40] = tested on: IGROV1 ovarian
[41] = tested on: SNB-78 CNS
[42] = tested on: NCI-H460 lung
[43] = tested on: COLO 205 colon
[44] = tested on: DU-145 prostate
[45] = tested on: M19-MEL melanoma
[46] = tested on: UACC-257 melanoma
[47] = tested on: SK-MEL-5 melanoma
[48] = tested on: RPMI-8226 leukemia
[49] = tested on: SK-MEL-2 melanoma
[50] = tested on: UO-31 renal
[51] = tested on: SF-295 CNS
[52] = tested on: A549 NSCLC
[53] = tested on: OVCAR-3 ovarian
[54] = tested on: SK-OV-3 ovarian
[55] = tested on: OVCAR-5 ovarian
[56] = tested on: OVCAR-8 ovarian
[57] = tested on: XF 498 CNS
[58] = tested on: SK-MEL-28 melanoma
[59] = tested on: HCT-116 colon
[60] = tested on: T-47D breast
[61] = tested on: HL-60(TB) leukemia
[62] = tested on: MDA-MB-435
[63] = tested on: RXF-631 renal
[64] = tested on: NCI-H226 lung
[65] = tested on: NCI-H522 lung
[66] = tested on: MOLT-4 leukemia
[67] = tested on: HOP-18 NSCLC

How did the TGI [1] turn out when `CC(CN1CCN(CC(C)Nc2ccnc3cc(Cl)ccc23)CC1)Nc1ccnc2cc(Cl)ccc12` (centres undefined) was run?
The TGI was 26.5 µM.

What about the GI50 [2] of the same compound?
Its GI50 is 83.6 µM.

And the TGI [2]?
The TGI was greater than 100 µM.

And the TGI [3]?
The TGI was 10.5 µM.

What about the TGI [4] of the same compound?
The TGI was greater than 61.6 µM.

What about the TGI [5] of the same compound?
The TGI was greater than 71.6 µM.

And the TGI [6]?
Its TGI is 42.2 µM.

And the TGI [7]?
The TGI was 26.9 µM.

And the TGI [8]?
The TGI was 50.2 µM.

And the TGI [9]?
The TGI was 32.5 µM.

And the TGI [10]?
The TGI was 41.1 µM.

And the GI50 [11]?
The GI50 was 2.55 µM.

And the TGI [11]?
The TGI was 9.69 µM.

What about the GI50 [12] of the same compound?
Its GI50 is 2.82 µM.

And the TGI [12]?
Its TGI is greater than 100 µM.

What about the TGI [13] of the same compound?
The TGI was greater than 100 µM.

And the TGI [14]?
Its TGI is greater than 57 µM.

What about the TGI [15] of the same compound?
The TGI was greater than 58.9 µM.

And the GI50 [16]?
Its GI50 is 1.59 µM.

What about the TGI [16] of the same compound?
Its TGI is 13.2 µM.

And the TGI [17]?
The TGI was 14.7 µM.

And the TGI [18]?
The TGI was 10.4 µM.

And the TGI [19]?
The TGI was greater than 53.8 µM.

What about the GI50 [20] of the same compound?
Its GI50 is 2.72 µM.

What about the TGI [20] of the same compound?
Its TGI is 7.52 µM.

What about the GI50 [21] of the same compound?
Its GI50 is 3.04 µM.

What about the TGI [21] of the same compound?
Its TGI is 57.2 µM.

And the GI50 [22]?
The GI50 was 8.29 µM.

What about the TGI [22] of the same compound?
Its TGI is greater than 100 µM.

And the TGI [23]?
Its TGI is greater than 100 µM.

What about the TGI [24] of the same compound?
Its TGI is greater than 79.9 µM.

And the TGI [25]?
Its TGI is greater than 63 µM.

And the TGI [26]?
Its TGI is 41 µM.

And the TGI [27]?
Its TGI is 29.8 µM.

What about the TGI [28] of the same compound?
Its TGI is 33.8 µM.

What about the TGI [29] of the same compound?
Its TGI is greater than 56.8 µM.

What about the TGI [30] of the same compound?
The TGI was 30.7 µM.

And the TGI [31]?
Its TGI is greater than 51.8 µM.

And the TGI [32]?
The TGI was greater than 36 µM.

What about the TGI [33] of the same compound?
The TGI was 18.3 µM.

What about the TGI [34] of the same compound?
The TGI was 8.19 µM.

What about the TGI [35] of the same compound?
The TGI was 64.6 µM.

What about the TGI [36] of the same compound?
The TGI was 49.2 µM.

And the TGI [37]?
The TGI was 7.45 µM.

And the TGI [38]?
Its TGI is 19.6 µM.

And the TGI [39]?
The TGI was greater than 100 µM.

And the GI50 [40]?
The GI50 was 9.37 µM.

What about the TGI [40] of the same compound?
Its TGI is greater than 100 µM.

What about the TGI [41] of the same compound?
The TGI was 38 µM.

And the TGI [42]?
Its TGI is 14.3 µM.

What about the TGI [43] of the same compound?
Its TGI is 31.8 µM.

And the GI50 [44]?
Its GI50 is 7.83 µM.

What about the TGI [44] of the same compound?
The TGI was greater than 100 µM.

And the TGI [45]?
Its TGI is 41.4 µM.

What about the TGI [46] of the same compound?
The TGI was 29.5 µM.

And the TGI [47]?
The TGI was 23.5 µM.

And the TGI [48]?
Its TGI is greater than 20.1 µM.

What about the GI50 [49] of the same compound?
Its GI50 is 25.8 µM.

What about the TGI [49] of the same compound?
The TGI was 62.7 µM.

And the TGI [50]?
Its TGI is 30.7 µM.

And the TGI [51]?
The TGI was 51.2 µM.

What about the TGI [52] of the same compound?
The TGI was greater than 57 µM.

And the TGI [53]?
The TGI was greater than 64.4 µM.

And the TGI [54]?
Its TGI is 76.7 µM.

What about the TGI [55] of the same compound?
The TGI was greater than 68.6 µM.

What about the TGI [56] of the same compound?
The TGI was greater than 64 µM.

And the TGI [57]?
Its TGI is 37.9 µM.

And the TGI [58]?
The TGI was 10.4 µM.

And the TGI [59]?
The TGI was 12.9 µM.

What about the GI50 [60] of the same compound?
Its GI50 is 35.2 µM.

And the TGI [60]?
Its TGI is 74.6 µM.

What about the TGI [61] of the same compound?
Its TGI is 19.3 µM.

What about the GI50 [62] of the same compound?
Its GI50 is 2.74 µM.

What about the TGI [62] of the same compound?
Its TGI is 9.38 µM.

What about the TGI [63] of the same compound?
Its TGI is 25.3 µM.

And the TGI [64]?
The TGI was greater than 69.5 µM.

And the TGI [65]?
Its TGI is 21.3 µM.

And the TGI [66]?
The TGI was greater than 100 µM.

What does the source list for `CCOC(=O)C(=O)NCCCN1CCOCC1`?
TGI [1]: > 100 µM; TGI [67]: > 100 µM; TGI [3]: > 100 µM; TGI [4]: > 100 µM; TGI [5]: > 100 µM; TGI [6]: > 100 µM; TGI [7]: > 100 µM; TGI [8]: > 100 µM; TGI [9]: > 100 µM; TGI [10]: > 100 µM; TGI [12]: > 100 µM; TGI [13]: > 100 µM; TGI [14]: > 100 µM; TGI [15]: > 100 µM; TGI [16]: > 100 µM; TGI [17]: > 100 µM; TGI [18]: > 100 µM; TGI [19]: > 100 µM; TGI [23]: > 100 µM; TGI [24]: > 100 µM; TGI [25]: > 100 µM; TGI [26]: > 100 µM; TGI [27]: > 100 µM; TGI [29]: > 100 µM; TGI [30]: > 100 µM; TGI [31]: > 100 µM; TGI [32]: > 100 µM; TGI [33]: > 100 µM; TGI [34]: > 100 µM; TGI [35]: > 100 µM; TGI [36]: > 100 µM; TGI [38]: > 100 µM; TGI [39]: > 100 µM; TGI [40]: > 100 µM; TGI [41]: > 100 µM; TGI [42]: > 100 µM; TGI [43]: > 100 µM; TGI [45]: > 100 µM; TGI [46]: > 100 µM; TGI [47]: > 100 µM; TGI [49]: > 100 µM; TGI [50]: > 100 µM; TGI [51]: > 100 µM; TGI [52]: > 100 µM; TGI [53]: > 100 µM; TGI [54]: > 100 µM; TGI [55]: > 100 µM; TGI [56]: > 100 µM; TGI [57]: > 100 µM; TGI [58]: > 100 µM; TGI [59]: > 100 µM; TGI [61]: > 100 µM; TGI [63]: > 100 µM; TGI [64]: > 100 µM; TGI [65]: > 100 µM; TGI [66]: > 100 µM
